US20040023884A1, “Biologically active peptides from functional domains of bactericidal/permeability-increasing protein and uses thereof” (priority 1993, published 2004)
Square brackets hold non-standard residues; d marks the D form. Ends that are not written are not given here. Peptide text beside a SMILES is read from it. 1Nal = N[C@@H](Cc1cccc2ccccc12)C(=O)O

How the values were obtained:
C. albicans = test: Radial diffusion fungicidal assay, Candida albicans; type: cell-based; conditions: for C. albicans: pmol required for 30 mm^2 zone: radial diffusion
[1] = system: E. coli 0111:B4 (smooth) bacteria; test: Radial diffusion bactericidal assay, E. coli 0111:B4; type: cell-based; conditions: radial diffusion; PROBIT analysis; E. coli O111:B4 (smooth)
Staphylococcus aureus = test: Radial diffusion bactericidal assay, Staphylococcus aureus; type: cell-based; conditions: radial diffusion; PROBIT analysis; S. aureus
[2] = system: rough mutant E. coli J5 bacteria; test: Radial diffusion bactericidal assay, E. coli J5; type: cell-based; conditions: for pmol added to well to achieve a 30 mm^2 bactericidal zone, E. coli J5: PROBIT analysis, E. coli J5 (rough)
Summary of the method: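 Log-phase bacteria, washed in 10 mM sodium phosphate pH 7.4, were seeded at 4×10^6 CFU/mL in underlayer agarose. BPI fragments (5 or 10 μL) went into 3 mm wells for 3 h at 37° C., then overlayer agarose was added. After overnight 37° C. incubation, clearing zones were measured by micrometer.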

[3] = 3H-heparin binding assay (affinity and capacity); conditions: for Heparin Capacity: heparin bound at saturation; for Kd: read-out: Heparin Affinity
Summary of the method: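 Bound 3H-heparin was counted by liquid scintillation after 1 h incubation at 4 °C with fragments immobilised on PVDF-bottomed wells, then washing in blocking buffer. Signal was corrected for BSA-related background, and varying amounts of rBPI23 were used as positive control.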

Candida albicans = type: cell-based
RAW 264.7 cells = test: LPS neutralization cellular proliferation assay, RAW 264.7 cells; type: cell-based, mouse
Description: In this assay, mouse RAW 264.7 cells (ATCC Accession No. T1B71), maintained in RPMI 1640 media (GIBCO), supplemented with 10 mM HEPES buffer (pH 7.4), 2 mM L-glutamine, penicillin (100U/mL), streptomcin (100 μg/mL), 0.075% sodium bicarbonate, […] 2-mercaptoethanol and 10% fetal bovine serum (Hyclone, Inc., Logan, Utah), were first induced by incubation in the presence of 50U/mL recombinant mouse y-interferon (Genzyme, Cambridge, Mass.) for 24 h prior to assay. Induced cells were then mechanically collected and centrifuged at 500×g at 4° C. and then resuspended in 50 mL RPMI 1640 media (without supplements), re-centrifuged and again resuspended in RPMI 1640 media (without supplements). The cells were counted and their concentration adjusted to 2×10^5 cells/mL and 100 μL aliquots were added to each well of a 96-well microtitre plate. The cells were then incubated for about 15 hours with E. coli O113 LPS (Control Standard. Assoc. of Cape Cod. Woods Hole, Mass.), which was added in 100 μL/well aliquots at a concentration of […] in serum-free RPMI 1640 media (this concentration being the result of titration experiments in which LPS concentration was varied between 50 pg/mL and 100 ng/mL). This incubation was performed in the absence or presence of BPI functional domain peptides in varying concentrations between 25 ng/mL and 50 μg/mL. Recombinant human BPI was used as a positive control at a concentration of 1 μg/mL. Cell proliferation was quantitatively measured by the addition of 1 μCi/well [^3H]-thymidine 5 hours after the time of initiation of the assay. After the 15-hour incubation, labeled cells were harvested onto glass fiber filters with a cell harvester (Inotech Biosystems, EQ-384, Sample Processing and Filter Counting System, Lansing, Mich.).

Molecule | C. albicans: pmol required for 30 mm^2 zone (C. albicans) [pmol] | pmol added to well to achieve a 30 mm^2 bactericidal zone, E. coli O111:B4 [1] | pmol added to well to achieve a 30 mm^2 bactericidal zone, S. aureus (Staphylococcus aureus) | pmol added to well to achieve a 30 mm^2 bactericidal zone, E. coli J5 ([2]; radial diffusion) | Heparin Capacity [3] [ng] | Kd [3] [nM] | fold decrease in the radial diffusion assay test (fungicidal activity) (C. albicans; vs BPI.13) | MIC C. alb (Candida albicans) [µg/mL] | bactericidal activity (in words) ([2]; radial diffusion, E. coli J5) | heparin binding capacity (in words) [3] | EC50 (peptide concentration at which the growth inhibitory effect of LPS was reversed by 50%) (RAW 264.7 cells) | IC50 (peptide concentration at which RAW cell growth was inhibited by 50%) (RAW 264.7 cells) | activity of position 95 substitution variants (in words) ([2]; activity not further specified) | behaviour in the RAW 264.7 proliferation assay (in words) (RAW 264.7 cells)
KSKVGWLIQLFLKK [BPI.87] | >1535.78 | 23,949.00 pmol | 868,991.70 pmol | 188.72 pmol | 280.0 | 575 |  |  |  |  |  |  |  | 
KSKVGWLIALFHKK [BPI.39] | 1791.81 | b (no detectable activity up to 5 μg/well) |  | 316.20 pmol | 335.6 | 757 | greater than 8 fold | 12.50 |  |  |  |  |  | 
KWKAAARFLKKSKVGWLIQLFHKK [BPI.145] | >1886.58 | 9,561.00 pmol | b (no detectable activity up to 5 μg/well) | 250.00 pmol |  |  |  |  |  |  |  |  |  | 
KSKVLWLIQLFHKK [BPI.85] | >1881.18 | 295,208.43 pmol | 14,677.13 pmol | 227.35 pmol | 233.1 | 682 |  |  |  |  |  |  |  | 
KWAFAKKQKKRLKRQWLKKF [BPI.150] | >2380.67 | 3,610.00 pmol | b (no detectable activity up to 5 μg/well) | 220.00 pmol |  |  |  |  |  |  |  |  |  | 
CKSKVGWLIQLFHKKC [BPI.137] | >2285.73 | 87,980.00 pmol | b (no detectable activity up to 5 μg/well) | 1,390.00 pmol |  |  |  |  |  |  |  |  |  | 
CC[C@H](C)[C@H](N)C(=O)N[C@@H](CCCCN)C(=O)N[C@H](C(=O)N[C@@H](CO)C(=O)NCC(=O)N[C@@H](CCCCN)C(=O)N[C@@H](Cc1c[nH]c2ccccc12)C(=O)N[C@@H](CCCCN)C(=O)N[C@@H](C)C(=O)N[C@@H](CCC(N)=O)C(=O)N[C@@H](CCCCN)C(=O)N[C@@H](CCCNC(=N)N)C(=O)N[C@@H](Cc1ccccc1)C(=O)N[C@@H](CC(C)C)C(=O)N[C@@H](CCCCN)C(=O)NCCCC[C@H](NC(=O)[C@H](CCCCN)NC(=O)[C@H](CC(C)C)NC(=O)[C@H](Cc1ccccc1)NC(=O)[C@H](CCCNC(=N)N)NC(=O)[C@H](CCCCN)NC(=O)[C@H](CCC(N)=O)NC(=O)[C@H](C)NC(=O)[C@H](CCCCN)NC(=O)[C@H](Cc1c[nH]c2ccccc12)NC(=O)[C@H](CCCCN)NC(=O)CNC(=O)[C@H](CO)NC(=O)[C@@H](NC(=O)[C@H](CCCCN)NC(=O)[C@@H](N)[C@@H](C)CC)[C@@H](C)CC)C(=O)NCCCC[C@H](NC(=O)[C@H](CCCCNC(=O)[C@H](CCCCN)NC(=O)[C@H](CC(C)C)NC(=O)[C@H](Cc1ccccc1)NC(=O)[C@H](CCCNC(=N)N)NC(=O)[C@H](CCCCN)NC(=O)[C@H](CCC(N)=O)NC(=O)[C@H](C)NC(=O)[C@H](CCCCN)NC(=O)[C@H](Cc1c[nH]c2ccccc12)NC(=O)[C@H](CCCCN)NC(=O)CNC(=O)[C@H](CO)NC(=O)[C@@H](NC(=O)[C@H](CCCCN)NC(=O)[C@@H](N)[C@@H](C)CC)[C@@H](C)CC)NC(=O)[C@H](CCCCN)NC(=O)[C@H](CC(C)C)NC(=O)[C@H](Cc1ccccc1)NC(=O)[C@H](CCCNC(=N)N)NC(=O)[C@H](CCCCN)NC(=O)[C@H](CCC(N)=O)NC(=O)[C@H](C)NC(=O)[C@H](CCCCN)NC(=O)[C@H](Cc1c[nH]c2ccccc12)NC(=O)[C@H](CCCCN)NC(=O)CNC(=O)[C@H](CO)NC(=O)[C@@H](NC(=O)[C@H](CCCCN)NC(=O)[C@@H](N)[C@@H](C)CC)[C@@H](C)CC)C(=O)NCCC(=O)O)[C@@H](C)CC [MAP.1, β-alanyl-Nα,Nε-substituted-{Nα,Nε(BPI.2)lysyl}lysine] |  | 552.79 pmol | 1,382.60 pmol | 105.71 pmol | 459.1 | 937 |  |  | highly bactericidal | extremely high heparin capacity | 0.45 ± 0.1 µg/mL |  |  | 
CC(C)C[C@H](NC(=O)[C@H](Cc1ccccc1)NC(=O)[C@H](CCCNC(=N)N)NC(=O)[C@H](Cc1cccc2ccccc12)NC(=O)[C@H](Cc1cccc2ccccc12)NC(=O)[C@H](C)NC(=O)[C@H](CCCCN)NC(=O)[C@H](Cc1c[nH]c2ccccc12)NC(=O)[C@H](CCCCN)NC(=O)[C@H](CCCCN)NC(=O)[C@H](CC(C)C)NC(=O)[C@H](Cc1ccccc1)NC(=O)[C@H](CCCNC(=N)N)NC(=O)[C@H](Cc1cccc2ccccc12)NC(=O)[C@H](Cc1cccc2ccccc12)NC(=O)[C@H](C)NC(=O)[C@H](CCCCN)NC(=O)[C@H](Cc1c[nH]c2ccccc12)NC(=O)[C@H](CCCCN)NC(=O)[C@H](CCCCN)NC(=O)[C@H](CC(C)C)NC(=O)[C@H](Cc1ccccc1)NC(=O)[C@H](CCCNC(=N)N)NC(=O)[C@H](Cc1cccc2ccccc12)NC(=O)[C@H](Cc1cccc2ccccc12)NC(=O)[C@H](C)NC(=O)[C@H](CCCCN)NC(=O)[C@H](Cc1c[nH]c2ccccc12)NC(=O)[C@@H](N)CCCCN)C(=O)N[C@@H](CCCCN)C(=O)O [BPI.157] (H-KWKA[1Nal][1Nal]RFLKKWKA[1Nal][1Nal]RFLKKWKA[1Nal][1Nal]RFLK-OH; N-terminus and C-terminus assumed) |  |  |  |  |  |  |  | >100.00 |  |  | comparable to BPI.29 | lower IC5 |  | 
IKISGKWKAQFDRFLK [BPI.76] |  | b (no detectable activity up to 5 μg/well) | b (no detectable activity up to 5 μg/well) | 10,519.55 pmol | 144.4 | 128 |  |  |  |  | >50 µg/mL | — (No proliferation decrease up to 50 μg/ml) | dramatically reduced activity, to levels lower than the original peptide (BPI.2) | 
KSKVGWLIQLFFKK [BPI.94] | >922.54 | 3,658.80 pmol | 9,446.60 pmol | 922.54 pmol | 216.1 | 407 |  |  |  |  |  |  |  | 
IKISGKWKAFKRFLK [BPI.81] |  | 3,018.90 pmol | 9,477.20 pmol | 283.84 pmol | 318.4 | 335 |  |  |  |  |  | 14 ± 0.2 µg/mL |  | unable to reverse the growth inhibitory effect of LPS
KSKVFWLIQLFHKK [BPI.95] | >1397.64 | 2,809.70 pmol | b (no detectable activity up to 5 μg/well) | 330.88 pmol | 224.5 | 551 |  |  |  |  |  |  |  | 
